We go through one substance from patent publication US20050164929A1, “Methods of preventing and treating inflammatory bowel disease” (LUPINE LOGIC, INC., priority 2000, published 2005).

In assay [1] the test system is chronic DSS-induced ulcerative colitis in female Swiss Webster mice. Nature of the assay: Chronic DSS colitis, every other day dosing (N-405). In kind it is in vivo, mouse. To be noted: 3.33 mg/kg (UV) IP on Days 6, 8, 10, 12, 14 (q2d).
Assay [2] relates to DSS-induced ulcerative colitis in female Swiss Webster mice. Nature of the assay: Chronic 2 week DSS-induced ulcerative colitis (N-404). In kind it is in vivo, mouse. Here is the method:
Colitis was induced in female Swiss Webster mice by exposure to 3% DSS in the drinking water (ad libitum) on study Days 1-5 and maintained by exposure to 1% DSS in the drinking water (ad libitum) on study Days 6-15. Mice were randomly assigned to 4 groups of 15 animals (Table X). Mice were exposed to 3% DSS in drinking water on test Days 1 through 5 and 1% DSS on test Days 6-15, with concurrent intraperitoneal (IP) treatments of vehicle or CG53135-05 at 0.33, 1.67 and 3.33 mg/kg (UV) Days 6-14 after disease was established. Mice were weighed daily. On Day 15 animals were terminated by cervical dislocation, the colon length was measured, and colon content was scored. Tissues were collected into 10% neutral buffered formalin and processed routinely for histopathology.
Clinical Parameters and Gross Pathology: Only animals that survived the duration of the study were included in the analysis of body weight change, terminal colon lengths, and colon content scores. At necropsy, the colon length was measured and assessed for evidence of stool consistency changes. Colon content was scored at necropsy according to the following criteria: 0=Normal (firm, well formed stool); 1=Semi-solid stool; 2=Semi-solid to fluid stool; and 3=Semi-solid with definite evidence of blood, bloody fluid or no content.
Histopathology: At necropsy, the colon was harvested and divided into 2 approximately equal segments, proximal and distal, to assess regional changes induced in this model. Distal ends were marked to maintain orientation. These colon segments were collected, preserved in 10% neutral buffered formalin, and routinely processed for histopathologic evaluation. During processing for histology, the proximal and distal colon segments were each trimmed to obtain 4 equally spaced segments, and hematoxylin and eosin (H&E) stained slides were prepared for each. Both proximal and distal tissues were examined as these tissues are affected to different degrees of severity in this model (more severe and less variable symptoms predominate in the distal colon).
For each colon section, submucosal edema was quantified by measuring the distance (mm) from the muscularis mucosa to the internal border of the outer muscle layer. The extent of inflammation (foamy macrophages, lymphocytes and polymorphonuclear cell infiltrate) was assigned severity scores according to the following ranking: 0=Normal; 1=Minimal; 2=Mild; 3=Moderate; 4=Marked; and 5=Severe.
The parameters reflecting epithelial cell loss/damage were scored individually using a percent area involved scoring method. Parameters that were scored using the percent involvement scale included colon glandular loss and colon erosion. • 0=None • 1=1-10% of the mucosa affected • 2=11-25% of the mucosa affected • 3=26-50% of the mucosa affected • 4=51-75% of the mucosa affected • 5=76-100% of the mucosa affected
Mucosal epithelial hyperplasia (basophilia, mitotic figures, multilayered on basement membranes, absence of goblet cells) was scored 0-5 based on the following criteria • 0=Normal • 1=Minimal-small foci generally adjacent to the inflammatory changes • 2=Mild-11-25% of mucosa affected • 3=Moderate-26-50% of mucosa affected • 4=Marked-[…] of mucosa affected • 5=Severe-51-100% of mucosa affected plus papillary proliferation into lumen
Mucosal thickness (an indicator of proliferative changes or edematous inflammatory mucosal expansion) was measured by placing an ocular micrometer at the base of the glands and the overlying surface epithelium in a non-tangential area of section representative of the thickest areas of mucosa.
The scores for proximal tissues and distal colon were averaged to determine a score for the entire colon for each parameter evaluated. […]

The subject of assay [3] is NIH 3T3 murine embryonic fibroblast cells. As to the kind of experiment: BrdU incorporation bioassay of RP-HPLC peak fractions. In kind it is cell-based, mouse. The note with it: BrdU incorporation. How it is done:
The biological activity of CG53135-05 related species collected from the 4 peaks identified by LC and MS was measured by treatment of serum-starved cultured NIH 3T3 murine embryonic fibroblast cells with various doses of the isolated CG53135-05 related species and measurement of incorporation of bromodeoxyuridine (BrdU) during DNA synthesis. For this assay, cells were cultured in Dulbecco's modified Eagle's medium supplemented with 10% fetal bovine serum. Cells were grown in 96-well plates to confluence at 37° C. in 10% CO2/air and then starved in Dulbecco's modified Eagle's medium for 24-72 hours. CG53135-05-related species were added and incubated for 18 hours at 37° C. in 10% CO2/air. BrdU ([…]) was added and incubated with the cells for 2 hours at 37° C. in 10% CO2/air. Incorporation of BrdU was measured by enzyme-linked immunosorbent assay according to the manufacturer's specifications (Roche Molecular Biochemicals, Indianapolis, Ind.).
Peak 4 was not included in this assay since insufficient material was collected (Peak 4 is less than 3% of the total peak area for CG53135-05).
Background: Dividing cells build labelled thymidine or BrdU into new DNA.

In another assay the test system is endothelial cells. As to the kind of experiment: Proliferation summary for variants. The class given is cell-based. The note with it: in vitro. Here is the method: (§1) Experiments were performed to evaluate the proliferative response of representative cell types to CG53135, e.g., a full-length tagged variant (CG53135-01), a deletion variant (CG53135-02), and a full-length codon-optimized untagged variant (CG53135-05).
(§2) CG53135-02 (batch 1 and 13) was also used in these experiments. Protein was expressed in E. coli, BLR (DE3) (Novagen), transformed with the deletion variant CG53135-02 inserted into a pET24a vector (Novagen). A research cell bank (RCB) was produced and cell paste containing CG53135-02 was produced by fermentation of cells originating from the RCB. Cell membranes were disrupted by high-pressure homogenization, and lysate was clarified by centrifugation. CG53135-02 was purified by ion exchange chromatography. The final protein fraction was dialyzed against the formulation buffer (100 mM citrate, 1 mM ethylenediaminetetraacetic acid (EDTA), and 1 M L-arginine).
(§3) CG53135-05, DEV10, which were also used in these experiments, was prepared by Cambrex Biosciences (Hopkinton, Mass.) according to Process 1 as described in Section 6.18.1, infra.
(§4) BrdU Incorporation: proliferative activity was measured by treatment of serum-starved cultured cells with a given agent and measurement of BrdU incorporation during DNA synthesis. Cells were cultured in respective manufacturer recommended basal growth medium supplemented with 10% fetal bovine serum or 10% calf serum as per manufacturer recommendations. Cells were grown in 96-well plates to confluence at 37° C. in 10% CO2/air (to subconfluence at 5% CO2 for dedifferentiated chondrocytes and NHOst). Cells were then starved in respective basal growth medium for 24-72 hours. CG53135 protein purified from E. coli or pCEP4/Sec or pCEP4/Sec-FGF 20× enriched conditioned medium was added (10 μL/100 μL of culture) for 18 hours. BrdU (10 μM final concentration) was then added and incubated with the cells for 5 hours. BrdU incorporation was assayed according to the manufacturer's specifications (Roche Molecular Biochemicals, Indianapolis, Ind.).
(§5) The above described experiments were also performed using CG53135-02 and CG53135-05 protein products, and the results are summarized in the Conclusion section below.

Assay [4] has as its system mesenchymal and epithelial cells. As to the kind of experiment: Proliferation summary for variants. The note with it: in vitro. In kind it is cell-based. Here is the method: as §1, §2, §3, §4, §5
The mark [5] stands for this setting: 3.33 mg/kg (UV), non-significant.

For “CG53135-05: Codon optimized, full length FGF-20, untagged; SEQ ID NOs 8 and 2”, in assay [1], the “severity of chronic DSS-induced ulcerative colitis” value was “significantly reduced the severity”. The “reduction in weight loss” value in assay [2] (0.33 mg/kg (UV) IP once daily Days 6-14) is reported as 19%. Moreover, the “reduction in weight loss” value in assay [2] (1.67 mg/kg (UV) IP once daily Days 6-14) is reported as 35%. For the same substance, in assay [2] (3.33 mg/kg (UV)), the “improvement in "on" inflammation” value is listed as 35%, the “improvement in distal gland loss” value stood at 38%, the “improvement in distal summed histopathologic scores” value is given as 38% and the “improvement in total gland loss” value worked out at 37%. In addition, in assay [2] (3.33 mg/kg (UV)), the “improvement in total inflammation” value was found to be 34% and the “improvement in total summed histopathologic scores” value was found to be 37%. In assay [2] (3.33 mg/kg (UV) IP once daily Days 6-14), the “reduction in weight loss” value turned out to be 67%. In assay [2] (setting [5]), the “improvement in the hyperplasia score” value came to 31% and the “inhibition of the total mucosal thickness” value turned out to be 39%. For the same substance, in assay [2] (3.33 mg/kg (UV), statistically significant), the “colon length, inhibition of decrease” value turned out to be 29%. Moreover, the “improvement of colon scores” value in assay [2] (1.67 or 3.33 mg/kg (UV)) is 21-29%. Further, the “inhibition of proximal, distal and total colon erosion” value in assay [2] (mid and high dose groups, non-significant) was 46-62%. Besides, the “induction of DNA synthesis / activity in proliferation assays” value in assay [3] is recorded as “dose-dependent manner”. Moreover, in the assay with endothelial cells, the “proliferation of endothelial cells” value is recorded as “not”. The “proliferation of mesenchymal and epithelial cells” value in assay [4] is given as “induce proliferation”.
